Experimental data from patent US11104648B2, “Pyrazole derivative” (Zhejiang Research Institute of Chemical Industry Co., Ltd., priority 2018, dated 2021).
Where two headings read alike, the source gives them in different places.

Key:
Assay type in all cases: in vivo
[1] = test system: adult Tetranychus cinnabarinus; assay: Activity assay of adult Tetranychus cinnabarinus (whole-plant spray on bean seedlings); conditions: 48 h; for pest or weed control at 1.25 µg/mL: concentration 1.25 mg/L; for pest or weed control at 2.5 µg/mL: concentration 2.5 mg/L
How it was run: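 Bean seedlings at two-true-leaf stage, infested with adult mites and base count taken, sprayed whole-plant with compound in DMF (≤10%) diluted in 1‰ Tween 80. Three replicates per treatment kept in standard observation room. Surviving mites counted at 48 h to give death rate.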

[2] = test system: Tetranychus cinnabarinus Nymphs; assay: Activity assay of Tetranychus cinnabarinus nymphs (spray on broad bean leaves); conditions: 48 h; for pest or weed control at 2 µg/mL: concentration 2 mg/L; for pest or weed control at 2 µg/mL / pest or weed control at 2.5 µg/mL: read-out: nymph-killing activity; for pest or weed control at 2.5 µg/mL: concentration 2.5 mg/L; for pest or weed control at 0.5 µg/mL: nymphs, concentration 0.5 mg/L, parallel determination, read-out: Death rate (%)
How it was run: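 Compound in DMF (≤10%) diluted in 1‰ Tween 80 water was sprayed onto broad bean leaves carrying nymphs hatched from eggs laid by female adults over 24 h. Kept at 26±2° C., 70%–80% humidity, 16 h light; mortality (no response to touch) assessed after 48 h, three replicates with blank control.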

[3] = test system: Eggs of Tetranychus Cinnabarinus; assay: Activity assay of eggs of Tetranychus cinnabarinus (spray method, ovicidal); conditions: Tetranychus cinnabarinus; for pest or weed control at 2 µg/mL: concentration 2 mg/L; for pest or weed control at 5 µg/mL: concentration 5 mg/L, non-incubated eggs counted as dead
How it was run: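 Female mites laid eggs on broad bean leaves for 24 h, adults removed, eggs sprayed with compound in DMF (≤10%)/1‰ Tween 80. Held at 26±2° C, 70–80% humidity, 16 h light; unhatched eggs counted dead once blank control hatched. Three replicates.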

[4] = adult mites, parallel determination, read-out: Death rate (%)
[5] = read-out: adult mite-killing activity
[6] = spray, read-out: ovicidal activity
[7] = eggs, parallel determination, read-out: Death rate (%)

CCn1nc(C)cc1/C(OC(C)OC(=O)OCC(C)C)=C(\C#N)c1ccc(C(C)(C)C)cc1 (centres unmarked) [Compound 585]
pest or weed control at 1.25 µg/mL [1, 4]: 100% | pest or weed control at 1.25 µg/mL [1, 5]: ≥ 90% | pest or weed control at 2.5 µg/mL [1, 5]: ≥ 90% | pest or weed control at 2 µg/mL [2]: ≥ 90% | pest or weed control at 2.5 µg/mL [2]: ≥ 95% | pest or weed control at 0.5 µg/mL [2]: 96% | pest or weed control at 2 µg/mL [3, 6]: ≥ 90% | pest or weed control at 5 µg/mL [3, 6]: ≥ 90% | pest or weed control at 2 µg/mL [3, 7]: 100%

CCn1nc(C)cc1/C(OC(C)OC(=O)OCCC(C)C)=C(\C#N)c1ccc(C(C)(C)C)cc1 (centres unmarked) [Compound 586]
pest or weed control at 2.5 µg/mL [1, 5]: ≥ 90% | pest or weed control at 2.5 µg/mL [2]: ≥ 95% | pest or weed control at 5 µg/mL [3, 6]: ≥ 90%

CCCCCOC(=O)OC(C)O/C(=C(/C#N)c1ccc(C(C)(C)C)cc1)c1cc(C)nn1CC (centres unmarked) [Compound 588]
pest or weed control at 2.5 µg/mL [1, 5]: ≥ 90% | pest or weed control at 2.5 µg/mL [2]: ≥ 95% | pest or weed control at 5 µg/mL [3, 6]: ≥ 90%

CCn1nc(C)cc1/C(OC(C)OC(=O)OCCCl)=C(\C#N)c1ccc(C(C)(C)C)cc1 (centres unmarked) [Compound 590]
pest or weed control at 2.5 µg/mL [1, 5]: ≥ 90% | pest or weed control at 2.5 µg/mL [2]: ≥ 95% | pest or weed control at 5 µg/mL [3, 6]: ≥ 90%

CCn1nc(C)cc1/C(OC(C)OC(=O)OCC(F)(F)F)=C(\C#N)c1ccc(C(C)(C)C)cc1 (centres unmarked) [Compound 595]
pest or weed control at 2.5 µg/mL [1, 5]: ≥ 90% | pest or weed control at 2.5 µg/mL [2]: ≥ 95% | pest or weed control at 5 µg/mL [3, 6]: ≥ 90%

CCn1nc(C)cc1/C(OC(C)OC(=O)OCCOC)=C(\C#N)c1ccc(C(C)(C)C)cc1 (centres unmarked) [Compound 596]
pest or weed control at 2.5 µg/mL [1, 5]: ≥ 90% | pest or weed control at 2.5 µg/mL [2]: ≥ 95% | pest or weed control at 5 µg/mL [3, 6]: ≥ 90%

CCn1nc(C)cc1/C(OC(C)OC(=O)OCCSC)=C(\C#N)c1ccc(C(C)(C)C)cc1 (centres unmarked) [Compound 599]
pest or weed control at 2.5 µg/mL [1, 5]: ≥ 90% | pest or weed control at 2.5 µg/mL [2]: ≥ 95% | pest or weed control at 5 µg/mL [3, 6]: ≥ 90%

C=CCOC(=O)OC(C)O/C(=C(/C#N)c1ccc(C(C)(C)C)cc1)c1cc(C)nn1CC (centres unmarked) [Compound 602]
pest or weed control at 1.25 µg/mL [1, 5]: ≥ 90% | pest or weed control at 2.5 µg/mL [1, 5]: ≥ 90% | pest or weed control at 2 µg/mL [2]: ≥ 90% | pest or weed control at 2.5 µg/mL [2]: ≥ 95% | pest or weed control at 2 µg/mL [3, 6]: ≥ 90% | pest or weed control at 5 µg/mL [3, 6]: ≥ 90%

C#CCOC(=O)OC(C)O/C(=C(/C#N)c1ccc(C(C)(C)C)cc1)c1cc(C)nn1CC (centres unmarked) [Compound 604]
pest or weed control at 2.5 µg/mL [1, 5]: ≥ 90% | pest or weed control at 2.5 µg/mL [2]: ≥ 95% | pest or weed control at 5 µg/mL [3, 6]: ≥ 90%

CCSC(=O)OC(C)O/C(=C(/C#N)c1ccc(C(C)(C)C)cc1)c1cc(C)nn1CC (centres unmarked) [Compound 608]
pest or weed control at 2.5 µg/mL [1, 5]: ≥ 90% | pest or weed control at 2.5 µg/mL [2]: ≥ 95% | pest or weed control at 5 µg/mL [3, 6]: ≥ 90%

CCn1nc(C)c(Cl)c1/C(OCOC(=O)OC)=C(\C#N)c1ccc(C(C)(C)C)cc1 [Compound 739]
pest or weed control at 2.5 µg/mL [1, 5]: ≥ 90% | pest or weed control at 2.5 µg/mL [2]: ≥ 95% | pest or weed control at 5 µg/mL [3, 6]: ≥ 90%

CCn1nc(C)c(Cl)c1/C(OC(C)OC(=O)OC)=C(\C#N)c1ccc(C(C)(C)C)cc1 (centres unmarked) [Compound 771]
pest or weed control at 1.25 µg/mL [1, 4]: 100% | pest or weed control at 1.25 µg/mL [1, 5]: ≥ 90% | pest or weed control at 2.5 µg/mL [1, 5]: ≥ 90% | pest or weed control at 2 µg/mL [2]: ≥ 90% | pest or weed control at 2.5 µg/mL [2]: ≥ 95% | pest or weed control at 0.5 µg/mL [2]: 95% | pest or weed control at 2 µg/mL [3, 6]: ≥ 90% | pest or weed control at 5 µg/mL [3, 6]: ≥ 90% | pest or weed control at 2 µg/mL [3, 7]: 100%

CCOC(=O)OC(C)O/C(=C(/C#N)c1ccc(C(C)(C)C)cc1)c1c(Cl)c(C)nn1CC (centres unmarked) [Compound 772]
pest or weed control at 1.25 µg/mL [1, 4]: 100% | pest or weed control at 1.25 µg/mL [1, 5]: ≥ 90% | pest or weed control at 2.5 µg/mL [1, 5]: ≥ 90% | pest or weed control at 2 µg/mL [2]: ≥ 90% | pest or weed control at 2.5 µg/mL [2]: ≥ 95% | pest or weed control at 0.5 µg/mL [2]: 90% | pest or weed control at 2 µg/mL [3, 6]: ≥ 90% | pest or weed control at 5 µg/mL [3, 6]: ≥ 90% | pest or weed control at 2 µg/mL [3, 7]: 100%

CCCCCOC(=O)OC(C)O/C(=C(/C#N)c1ccc(C(C)(C)C)cc1)c1c(Cl)c(C)nn1CC (centres unmarked) [Compound 780]
pest or weed control at 1.25 µg/mL [1, 5]: ≥ 90% | pest or weed control at 2.5 µg/mL [1, 5]: ≥ 90% | pest or weed control at 2 µg/mL [2]: ≥ 90% | pest or weed control at 2.5 µg/mL [2]: ≥ 95% | pest or weed control at 2 µg/mL [3, 6]: ≥ 90% | pest or weed control at 5 µg/mL [3, 6]: ≥ 90%

CCn1nc(C)c(C)c1/C(OCOC(=O)OC)=C(\C#N)c1ccc(C(C)(C)C)cc1 [Compound 931]
pest or weed control at 1.25 µg/mL [1, 4]: 95% | pest or weed control at 1.25 µg/mL [1, 5]: ≥ 90% | pest or weed control at 2.5 µg/mL [1, 5]: ≥ 90% | pest or weed control at 2 µg/mL [2]: ≥ 90% | pest or weed control at 2.5 µg/mL [2]: ≥ 95% | pest or weed control at 0.5 µg/mL [2]: 95% | pest or weed control at 2 µg/mL [3, 6]: ≥ 90% | pest or weed control at 5 µg/mL [3, 6]: ≥ 90% | pest or weed control at 2 µg/mL [3, 7]: 98%

CCOC(=O)OCO/C(=C(/C#N)c1ccc(C(C)(C)C)cc1)c1c(C)c(C)nn1CC [Compound 932]
pest or weed control at 1.25 µg/mL [1, 4]: 90% | pest or weed control at 1.25 µg/mL [1, 5]: ≥ 90% | pest or weed control at 2.5 µg/mL [1, 5]: ≥ 90% | pest or weed control at 2 µg/mL [2]: ≥ 90% | pest or weed control at 2.5 µg/mL [2]: ≥ 95% | pest or weed control at 2 µg/mL [3, 6]: ≥ 90% | pest or weed control at 5 µg/mL [3, 6]: ≥ 90% | pest or weed control at 2 µg/mL [3, 7]: 97%

CCCOC(=O)OCO/C(=C(/C#N)c1ccc(C(C)(C)C)cc1)c1c(C)c(C)nn1CC [Compound 933]
pest or weed control at 1.25 µg/mL [1, 5]: ≥ 90% | pest or weed control at 2.5 µg/mL [1, 5]: ≥ 90% | pest or weed control at 2 µg/mL [2]: ≥ 90% | pest or weed control at 2.5 µg/mL [2]: ≥ 95% | pest or weed control at 2 µg/mL [3, 6]: ≥ 90% | pest or weed control at 5 µg/mL [3, 6]: ≥ 90%

CCn1nc(C)c(C)c1/C(OCOC(=O)OCC(C)C)=C(\C#N)c1ccc(C(C)(C)C)cc1 [Compound 937]
pest or weed control at 1.25 µg/mL [1, 4]: 100% | pest or weed control at 1.25 µg/mL [1, 5]: ≥ 90% | pest or weed control at 2.5 µg/mL [1, 5]: ≥ 90% | pest or weed control at 2 µg/mL [2]: ≥ 90% | pest or weed control at 2.5 µg/mL [2]: ≥ 95% | pest or weed control at 0.5 µg/mL [2]: 90% | pest or weed control at 2 µg/mL [3, 6]: ≥ 90% | pest or weed control at 5 µg/mL [3, 6]: ≥ 90% | pest or weed control at 2 µg/mL [3, 7]: 100%

CCCCCOC(=O)OCO/C(=C(/C#N)c1ccc(C(C)(C)C)cc1)c1c(C)c(C)nn1CC [Compound 940]
pest or weed control at 1.25 µg/mL [1, 5]: ≥ 90% | pest or weed control at 2.5 µg/mL [1, 5]: ≥ 90% | pest or weed control at 2 µg/mL [2]: ≥ 90% | pest or weed control at 2.5 µg/mL [2]: ≥ 95% | pest or weed control at 2 µg/mL [3, 6]: ≥ 90% | pest or weed control at 5 µg/mL [3, 6]: ≥ 90%

CCn1nc(C)c(C)c1/C(OC(C)OC(=O)OC)=C(\C#N)c1ccc(C(C)(C)C)cc1 (centres unmarked) [Compound 963]
pest or weed control at 1.25 µg/mL [1, 5]: ≥ 90% | pest or weed control at 2.5 µg/mL [1, 5]: ≥ 90% | pest or weed control at 2 µg/mL [2]: ≥ 90% | pest or weed control at 2.5 µg/mL [2]: ≥ 95% | pest or weed control at 2 µg/mL [3, 6]: ≥ 90% | pest or weed control at 5 µg/mL [3, 6]: ≥ 90%

CCn1nc(C)c(C)c1/C(OC(C)OC(=O)OCC(C)C)=C(\C#N)c1ccc(C(C)(C)C)cc1 (centres unmarked) [Compound 969]
pest or weed control at 1.25 µg/mL [1, 5]: ≥ 90% | pest or weed control at 2.5 µg/mL [1, 5]: ≥ 90% | pest or weed control at 2 µg/mL [2]: ≥ 90% | pest or weed control at 2.5 µg/mL [2]: ≥ 95% | pest or weed control at 2 µg/mL [3, 6]: ≥ 90% | pest or weed control at 5 µg/mL [3, 6]: ≥ 90%
